Tested on: SMN
Assay: Western blotting of abnormal protein from pre-mRNA, SMN
Assay type: cell-based, human
Details: HeLa cells, 10 nM and 100 nM, 24 hours; untreated: only a 35 kDa band (FIG. 4)
Source text: Consequently the protein may serves as a protein marker to monitor the action of (8E,12E,14E)-7-((4-cycloheptylpiperazin-1-yl)carbonyl)oxy-3,6,16,21-tetrahydroxy-6,10,12,16,20-pentamethyl-18,19-epoxytricosa-8,12,14-trien-11-olide. Whether the pre-mRNA-dependent abnormal protein practically emerged upon the treatment of (8E,12E,14E)-7-((4-cycloheptylpiperazin-1-yl)carbonyl)oxy-3,6,16,21-tetrahydroxy-6,10,12,16,20-pentamethyl-18,19-epoxytricosa-8,12,14-trien-11-olide was examined by using cancer cells (HaLa). […] Based on these findings, the protein generated from pre-mRNA can serve as the marker as well.
About 3×10^5 cells of HeLa cells were first seeded in a 24-well culture plate (bottom area: 2 cm^2), and 18 hours later, the compound was added thereto at the indicated concentration, followed by additional 24-hour culturing. The cells were washed once with PBS(−), and then were lysed by treating with 0.2 ml of M-PER reagent (PIERCE) for 30 minutes. The collected lysate was filtered with a 0.45 μm filter to remove insoluble matters and then combined with an equal amount of 2×SDS-PAGE sample solution. The mixture was heated to be denatured at 95° C. for five minutes to yield a sample to be analyzed.
The analysis sample (15 μl each) was separated with 5-20% SDS-PAGE and transferred onto a PVDF membrane (Hybond-P: GE-Amersham). […]

CCC(O)C(C)C1OC1CC(C)(O)/C=C/C=C(\C)C1OC(=O)CC(O)CCC(C)(O)C(OC(=O)N2CCN(C3CCCCCC3)CC2)/C=C/C1C (stereo not shown) [E7107, (8E,12E,14E)-7-((4-cycloheptylpiperazin-1-yl)carbonyl)oxy-3,6,16,21-tetrahydroxy-6,10,12,16,20-pentamethyl-18,19-epoxytricosa-8,12,14-trien-11-olide]
SMN bands in Western blot: multiple bands with a molecular weight of less than 35 kDa were confirmed
